This note sets out measurements from ChEMBL document CHEMBL2321768, “A multivalent approach towards linked dual-pharmacology prostaglandin F receptor agonist/carbonic anhydrase-II inhibitors for the treatment of glaucoma” (Bioorg Med Chem Lett, 2013).

The target of data set [1] is Prostaglandin F2-alpha receptor (Mus musculus, UniProt P43117).
Description: Agonist activity at FP receptor in mouse 3T3 fibroblast cells assessed as intracellular calcium mobilization by FLIPR
The target of data set [2] is Prostaglandin F2-alpha receptor (Mus musculus) (UniProt P43117). Nature of the data set: Intrinsic activity at FP receptor in mouse 3T3 fibroblast cells assessed as maximum compound-evoked response. Type of data set: cell-based.
Data set [3] is described as follows: in vitro. The settings on record: rabbit.
Description: Corneal permeability in rabbit corneal tissues mounted on vertical Using chambers
A short description of data set [4]: in vitro. The settings on record: human, Caco-2.
Description: Permeability across human Caco2 cells

Prostaglandin F2-alpha receptor, sequence (P43117 whole entry): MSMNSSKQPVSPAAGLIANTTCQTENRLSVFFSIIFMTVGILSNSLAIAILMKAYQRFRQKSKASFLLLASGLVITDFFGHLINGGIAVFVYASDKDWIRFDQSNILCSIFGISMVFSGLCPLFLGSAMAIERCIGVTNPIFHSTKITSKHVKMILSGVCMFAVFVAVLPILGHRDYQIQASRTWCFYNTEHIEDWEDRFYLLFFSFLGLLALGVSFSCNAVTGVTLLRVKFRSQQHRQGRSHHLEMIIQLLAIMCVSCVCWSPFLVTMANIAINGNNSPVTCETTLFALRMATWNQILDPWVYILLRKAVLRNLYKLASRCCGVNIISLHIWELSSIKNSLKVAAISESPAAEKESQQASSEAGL
Prostaglandin F2-alpha receptor (Mus musculus), sequence (P43117 whole entry): as above

Regarding `CCCCC[C@H](O)/C=C/[C@@H]1[C@@H](C/C=C\CCCC(=O)N(CC)[C@H]2CN(CCCOC)S(=O)(=O)C3SC(S(N)(=O)=O)=CC32)[C@@H](O)C[C@H]1O` (some centres undefined), the EC50 in data set [1] was over 5.01 µM.

Take `O=C(O)CCC/C=C\C[C@@H]1[C@@H](CC[C@@H](O)CCc2ccccc2)[C@H](O)C[C@@H]1O` [LATANOPROST ACID]: the Intrinsic activity in data set [2] is 1. Further, the midpoint of the response in data set [1], the EC50, lay at 0.00631 µM. Further, the results for the Papp in data set [3] and in data set [4] were 1.2 ×10⁻⁶ cm/s and 3.5 ×10⁻⁶ cm/s, respectively.

In data set [1], `CCCCC[C@H](O)/C=C/[C@@H]1[C@@H](C/C=C\CCCC(=O)NCCc2ccc(S(N)(=O)=O)cc2)[C@@H](O)C[C@H]1O` gave an EC50 of over 5.01 µM.

Take `CCN(C(=O)/C=C/[C@@H]1[C@@H](C/C=C\CCCC(=O)O)[C@@H](O)C[C@H]1O)[C@H]1C[C@H](C)S(=O)(=O)C2SC(S(N)(=O)=O)=CC21` (some centres undefined): the EC50 in data set [1] was over 5.01 µM.

Consider `NS(=O)(=O)c1ccc(-n2cc([C@@H]3[C@@H](C/C=C\CCCC(=O)O)[C@@H](O)C[C@H]3O)nn2)cc1`, for which the Intrinsic activity in data set [2] is over 1. The molecule also gave an EC50 in data set [1] of 2 µM. The Papp in data set [3] worked out at 1.7 ×10⁻⁶ cm/s; in data set [4] it was 3.3 ×10⁻⁶ cm/s.

For `CCCCC[C@H](O)/C=C/[C@@H]1[C@@H](C/C=C\CCCC(=O)O)[C@@H](O)C[C@H]1O` [DINOPROST], in data set [2], the Intrinsic activity turned out to be 1. Moreover, the apparent permeability (Papp) in data set [3] amounted to 9.7 ×10⁻⁶ cm/s; in data set [4], 3.3 ×10⁻⁶ cm/s.

For `CCCCC[C@H](O)/C=C/[C@@H]1[C@@H](C/C=C\CCCC(=O)Nc2nnc(S(N)(=O)=O)s2)[C@@H](O)C[C@H]1O`, the Intrinsic activity in data set [2] is 0.9. Also, in data set [1], the EC50 was 3.98 µM. Besides, the results for the Papp in data set [3] and in data set [4] were 6.4 ×10⁻⁶ cm/s and 1.6 ×10⁻⁶ cm/s, respectively.

In the case of `CC(C)OC(=O)CCC/C=C\C[C@@H]1[C@@H](/C=C/C(=O)Nc2nnc(S(N)(=O)=O)s2)[C@H](O)C[C@@H]1O`, the EC50 in data set [1] was over 5.01 µM.

Turning to `CCN(C(=O)/C=C/[C@@H]1[C@@H](C/C=C\CCCC(=O)OC(C)C)[C@@H](O)C[C@H]1O)[C@H]1C[C@H](C)S(=O)(=O)C2SC(S(N)(=O)=O)=CC21` (some centres undefined), in data set [1], the EC50 is over 5.01 µM.

Regarding `COC(=O)CCC/C=C\C[C@@H]1[C@@H](c2cn(-c3ccc(S(N)(=O)=O)cc3)nn2)[C@H](O)C[C@@H]1O`, the concentration giving a half-maximal response (EC50) in data set [1] is over 5.01 µM. The Papp in data set [3] is 2.1 ×10⁻⁶ cm/s; in data set [4] it was 3.2 ×10⁻⁶ cm/s.

`NS(=O)(=O)c1nnc(NC(=O)CNC[C@@H]2[C@@H](C/C=C\CCCC(=O)O)[C@@H](O)C[C@H]2O)s1` yielded an EC50 in data set [1] of over 5.01 µM. The Papp in data set [3] was 0.94 ×10⁻⁶ cm/s; in data set [4], 3 ×10⁻⁶ cm/s.

`CC(C)OC(=O)CCC/C=C\C[C@@H]1[C@@H](CNCC(=O)Nc2nnc(S(N)(=O)=O)s2)[C@H](O)C[C@@H]1O` came in with a concentration giving a half-maximal response (EC50) in data set [1] of over 5.01 µM. Besides, the Papp in data set [3] came to 3.1 ×10⁻⁶ cm/s; in data set [4] it was 2.1 ×10⁻⁶ cm/s.

Usually EC50 stands for the concentration at which the effect is half-maximal. Low values mean higher potency in that assay, high ones lower potency in that assay. For orientation: Papp means a coefficient for how fast a substance crosses the barrier. Low readings indicate slow passage, high ones fast passage.
